Experimental data as given in US12162858B2, “Quinoline derivatives as inhibitors of AXL/MER RTK and CSF1R” (QURIENT CO., LTD., priority 2018, dated 2024).

Biological target: T1, Axl (Homo sapiens, UniProt P30530)
T1 sequence (P30530 26-894): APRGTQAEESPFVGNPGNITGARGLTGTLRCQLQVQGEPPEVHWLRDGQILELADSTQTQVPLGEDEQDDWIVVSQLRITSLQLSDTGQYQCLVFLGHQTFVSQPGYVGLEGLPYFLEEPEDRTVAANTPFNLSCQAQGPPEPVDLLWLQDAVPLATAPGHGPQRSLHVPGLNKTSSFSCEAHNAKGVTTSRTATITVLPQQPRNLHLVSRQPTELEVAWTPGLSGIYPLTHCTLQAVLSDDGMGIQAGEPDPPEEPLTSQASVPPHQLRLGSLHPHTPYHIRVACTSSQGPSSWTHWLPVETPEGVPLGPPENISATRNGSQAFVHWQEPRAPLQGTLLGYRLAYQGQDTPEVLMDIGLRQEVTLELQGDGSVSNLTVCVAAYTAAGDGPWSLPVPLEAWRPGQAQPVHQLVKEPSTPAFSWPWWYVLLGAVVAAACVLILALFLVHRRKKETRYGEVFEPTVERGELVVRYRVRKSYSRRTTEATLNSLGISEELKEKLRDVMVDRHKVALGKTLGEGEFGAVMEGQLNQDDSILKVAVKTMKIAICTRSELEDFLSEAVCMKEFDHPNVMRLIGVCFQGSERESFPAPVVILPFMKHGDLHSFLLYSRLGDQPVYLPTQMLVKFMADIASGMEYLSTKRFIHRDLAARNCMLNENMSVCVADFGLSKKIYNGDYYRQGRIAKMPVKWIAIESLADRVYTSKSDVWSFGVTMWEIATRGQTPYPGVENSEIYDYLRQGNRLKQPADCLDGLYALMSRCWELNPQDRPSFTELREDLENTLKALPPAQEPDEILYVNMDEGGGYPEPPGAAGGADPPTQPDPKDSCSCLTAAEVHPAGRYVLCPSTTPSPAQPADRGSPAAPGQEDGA
Experiment: Cellular Axl inhibition ELISA (p-Axl, Gas6-induced) using H1299 cells
Type: cell-based
Set-up: especially H1299 cell endogenously expresses Axl; endogenous in cells; host or cells: H1299
Settings: read-out: Cellular Axl activity by H1299 Elisa (IC50)
Outline: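 H1299 cells, seeded overnight, exposed 24 h at 37 °C to 10-point 3-fold compound dilutions, then stimulated with 200 ng/ml human Gas6 (final) for 1 h. Lysates assayed for p-Axl by sandwich ELISA with HRP/TMB, absorbance 450 nm; IC50 by sigmoidal dose-response fit.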

| SMILES | IC50 [nM] |
| --- | --- |
| COc1cc2nccc(Oc3ccc(NC(=O)c4nn(CC5CCNC5)cc4OCC(F)(F)F)nc3)c2cc1OC (stereo not shown) [Compound 72] | ≥ 1000 |
| COc1cc2nccc(Oc3ccc(NC(=O)c4nn(CC5CNC5)cc4OCC(F)(F)F)nc3)c2cc1OC [Compound 73] | ≥ 1000 |
| COc1cc2nccc(Oc3ccc(NC(=O)c4nn(C5CCNC5)cc4OCC(F)(F)F)c(F)c3)c2cc1OC (stereo not shown) [Compound 74] | < 500 |
| COc1cc2nccc(Oc3ccc(NC(=O)c4nn(CCN)cc4OCC(F)(F)F)c(F)c3)c2cc1OC [Compound 75] | < 500 |
| COc1cc2nccc(Oc3ccc(NC(=O)c4nn(CC(C)O)cc4OCC(F)(F)F)c(F)c3)c2cc1OC (stereo not shown) [Compound 76] | < 500 |
| COc1cc2nccc(Oc3ccc(NC(=O)c4nn(CCC(F)(F)F)cc4OCC4CCC4)nc3)c2cc1OC [Compound 166] | < 500 |
| CCCn1cc(OCC2CCC2)c(C(=O)Nc2ccc(Oc3ccnc4cc(OC)c(OC(F)(F)F)cc34)cn2)n1 [Compound 167] | < 500 |
| COc1cc2nccc(Oc3ccc(NC(=O)c4nn(CCNC5CC5)cc4OCC(F)(F)F)nc3)c2cc1OC [Compound 168] | < 500 |
| COc1cc2nccc(Oc3ccc(NC(=O)c4nn(CC5CCN(C)C5)cc4OCC(F)(F)F)nc3)c2cc1OC (stereo not shown) [Compound 169] | ≥ 1000 |
| COc1cc2nccc(Oc3ccc(NC(=O)c4nn(C5CC5)cc4OCCC(F)(F)F)nc3)c2cc1OC [Compound 170] | < 500 |
| COCCOc1cn(C2CC2)nc1C(=O)Nc1ccc(Oc2ccnc3cc(OC)c(OC)cc23)nn1 [Compound 171] | < 500 |
| COc1cc2nccc(Oc3ccc(NC(=O)c4nn(C5CC5)cc4OCC4CNC4)nn3)c2cc1OC [Compound 172] | ≥ 1000 |
| COc1cc2nccc(Oc3ccc(NC(=O)c4nn(C5CC5)cc4OCCC(F)(F)F)nn3)c2cc1OC [Compound 173] | < 500 |
| COc1cc2nccc(Oc3ccc(NC(=O)c4nn(CC(C)O)cc4OCC4CN(C)C4)nc3)c2cc1OC (stereo not shown) [Compound 174] | ≥ 1000 |
| COc1cc2nccc(Oc3ccc(NC(=O)c4nn(CC(C)O)cc4OCC(F)F)nc3)c2cc1OC (stereo not shown) [Compound 175] | < 500 |
| COc1cc2nccc(Oc3ccc(NC(=O)c4nc(CCC(F)(F)F)oc4CCC4CCC4)nc3)c2cc1OC [Compound 176] | < 500 |
| CCCn1cc(OCCN(C)C)c(C(=O)Nc2ccc(Oc3ccnc4cc(OC)c(OC)cc34)cn2)n1 [Compound 177] | < 500 |
| COc1cc2nccc(Oc3ccc(NC(=O)c4cc(C5CC5)cnc4OCC(F)(F)F)nc3)c2cc1OC [Compound 178] | < 500 |
| COc1cc2nccc(Oc3ccc(NC(=O)c4sc(C5CC5)cc4OCC(F)(F)F)nc3)c2cc1OC [Compound 179] | < 500 |
